# In patent publication US5776950:
# Read-outs that look alike come from different tables or passages of the source.
# Details: amide bond, 24-membered ring
# [1] = 2-chloro-1-methylpyridinium iodide/TEA, DCM, 4.2 mM, 25.0 °C
substance,measurement,setting,value
cyclo(D-2-hydroxypropanoyl-L-N-δ-tetrahydroquinoline-3-carboxyl-D-2- hydroxy-3-phenylpropanoyl-N-methyl-L-leucyl-D-2-hydroxypropanoyl-N-methyl-L-leucyl-D-2-hydroxy-3-phenylpropanoyl-N-methyl-L-leucyl),"ring closure, isolated yield",[1],42%
cyclo(D-2-hydroxy-3-phenylpropanoyl-L-pipecolyl-D-2-hydroxypropanoyl-N-methyl-L-leucyl-D-2-hydroxy-3-phenylpropanoyl-N-methyl-L-leucyl-D-2-hydroxypropanoyl-N-methyl-L-leucyl),"ring closure, isolated yield",[1],50%
"H-MeLeu-dLac-MeLeu-dPhLac-MeLeu-[3-oxy-2-oxopiperidin-1-yl (delta-lactam, replaces Lac + N-Me)]Leu-dPhLac-OH?","ring closure, isolated yield","the molecule shown is the open-chain precursor, BOP-Cl/DIEA, CH2Cl2, 0.99 mM",65%
cylo(D-2-hydroxypropanoyl-L-N-α-tetrahydroquinoline-3-carboxyl-D-2-hydroxypropanoyl-N-methyl-L-leucyl-D-2-hydroxypropanoyl-N-methyl-L-leucyl-D- 2-hydroxypropanoyl-N-methyl-L-leucyl),"ring closure, isolated yield","2-chloro-1-methylpyridinium iodide/TEA, DCM, 6.0 mM, 25.0 °C",50%
"H-MeLeu-dLac-MeLeu-dLac-MeLeu-[3-oxy-2-oxopiperidin-1-yl (delta-lactam, replaces Lac + N-Me)]Leu-dPhLac-OH?","ring closure, isolated yield","the molecule shown is the open-chain precursor, BOP-Cl/DIEA, CH2Cl2, 0.98 mM",48%
cyclo(D-2-hydroxy-3-phenylpropanoyl-L-prolyl-D-2-hydroxypropanoyl-N-methyl-L-leucyl-D-2-hydroxy-3-phenylpropanoyl-N-methyl-L-leucyl-D-2-hydroxypropanoyl-N-methyl-L-leucyl),"ring closure, isolated yield","2-chloro-1-methylpyridinium iodide/TEA, DCM, 5.9 mM, 25.0 °C",12%
cvlo(D-2-hydroxypropanoyl-L-pipecolyl-D-2-hydroxypropanoyl-N-methyl-L-leucyl-D-2-hydroxypropanoyl-N-methyl-L-leucyl-D-2-hydroxypropanoyl-N-methyl-L-leucyl),"ring closure, isolated yield","2-chloro-1-methylpyridinium iodide/TEA, DCM, 4.75 mM, 25.0 °C",34%
